Measurements from ChEMBL document CHEMBL1201862, “PubChem BioAssay data set” (2004).
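Grown in 96-well plates, cells were treated for 48 hours with each compound at five concentrations. Insufficient inhibition: endpoint recorded as highest concentration tested. GI50 marks 50% less growth.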 Active and inactive are the calls of the source. Rule as the data show it: active = GI50 up to about 1.1 µM and inactive = higher.

Key:
Test in all cases: NCI-60 cell line screen, 48 h
[1] = test system: SK-MEL-2
[2] = test system: KM12
[3] = test system: OVCAR-8
[4] = test system: NCI-H460
[5] = test system: HL-60
[6] = test system: SK-OV-3
[7] = test system: SNB-75
[8] = test system: OVCAR-4
[9] = test system: A549
[10] = test system: SNB-19
[11] = test system: SF-268
[12] = test system: SN12C
[13] = test system: HT-29
[14] = test system: LOX IMVI
[15] = test system: HCC 2998

Row | SMILES | GI50 [1] | GI50 [2] | GI50 [3] | GI50 [4] | GI50 [5] | GI50 [6] | GI50 [7] | GI50 [8] | GI50 [9] | GI50 [10] | GI50 [11] | GI50 [12] | GI50 [13] | GI50 [14] | GI50 [15]
1 | O=[N+]([O-])c1cc(I)cc(/C=N/NS(=O)(=O)c2ccc(Cl)cc2)c1O | 23.5 µM (inactive) | 18.2 µM (inactive) | 20.7 µM (inactive) | 19.9 µM (inactive) | 27.7 µM (inactive) | 24.7 µM (inactive) | 27 µM (inactive) | 30.5 µM (inactive) | 35.8 µM (inactive) | 29.9 µM (inactive) | 36.9 µM (inactive) | 23.7 µM (inactive) | 16.3 µM (inactive) | 19.8 µM (inactive) | 22.1 µM (inactive)
2 | C/C(=N\NC(N)=O)c1sc(-c2nc(C)c(/C(C)=N/NC(N)=O)s2)nc1C | > 100 µM (inactive) | > 100 µM (inactive) | > 100 µM (inactive) | 78.7 µM (inactive) | 40 µM (inactive) | > 100 µM (inactive) | > 100 µM (inactive) | > 100 µM (inactive) | > 100 µM (inactive) | > 100 µM (inactive) | > 100 µM (inactive) | > 100 µM (inactive) | > 100 µM (inactive) | > 100 µM (inactive) | > 100 µM (inactive)
3 | CC(=O)Nc1ccc(C(=O)N2N=C(C)/C(=C/c3ccccc3O)C2=O)cc1 | > 100 µM (inactive) | > 100 µM (inactive) | > 100 µM (inactive) | > 100 µM (inactive) | > 100 µM (inactive) |  | > 100 µM (inactive) | > 100 µM (inactive) | > 100 µM (inactive) | > 100 µM (inactive) | > 100 µM (inactive) | > 100 µM (inactive) | > 100 µM (inactive) | > 100 µM (inactive) | > 100 µM (inactive)
4 | O=C(O)CCC1(Br)CCCCC(Br)C1=O (stereo not drawn) | 77.4 µM (inactive) | > 10 µM (inactive) | > 100 µM (inactive) | > 100 µM (inactive) | > 100 µM (inactive) | > 100 µM (inactive) | 35.9 µM (inactive) | > 100 µM (inactive) | > 100 µM (inactive) | > 100 µM (inactive) | > 100 µM (inactive) | > 100 µM (inactive) | > 100 µM (inactive) |  | > 100 µM (inactive)
5 | COc1ccccc1/C=C(\C#N)C(=O)c1ccccc1 | > 100 µM (inactive) | > 100 µM (inactive) | > 100 µM (inactive) | > 100 µM (inactive) | > 100 µM (inactive) | > 100 µM (inactive) |  | > 100 µM (inactive) | > 100 µM (inactive) | > 100 µM (inactive) | > 100 µM (inactive) | > 100 µM (inactive) | > 100 µM (inactive) | > 100 µM (inactive) | > 100 µM (inactive)
6 | Cc1ccc(/C=N/C23CC4CC(CC(C4)C2)C3)cc1 | 85.7 µM (inactive) | > 100 µM (inactive) | > 100 µM (inactive) | > 100 µM (inactive) | > 100 µM (inactive) | > 100 µM (inactive) | 44.8 µM (inactive) | > 100 µM (inactive) | > 100 µM (inactive) |  | > 100 µM (inactive) | > 100 µM (inactive) | > 100 µM (inactive) | > 100 µM (inactive) | > 100 µM (inactive)
7 | c1nc2cscc2c2cscc12 | > 100 µM (inactive) | > 100 µM (inactive) | > 100 µM (inactive) | > 100 µM (inactive) | > 100 µM (inactive) | 37 µM (inactive) |  | > 100 µM (inactive) | > 100 µM (inactive) | > 100 µM (inactive) | > 100 µM (inactive) | > 100 µM (inactive) | > 100 µM (inactive) | > 100 µM (inactive) | > 100 µM (inactive)
8 | COc1cccc(NC(=O)CSc2nnc(-c3ccc(/N=C\c4ccc(Cl)cc4)cc3)o2)c1 | 19 µM (inactive) | 14.2 µM (inactive) | 24.4 µM (inactive) | 20.1 µM (inactive) | 27.7 µM (inactive) | 33.3 µM (inactive) | 23.8 µM (inactive) | 37.4 µM (inactive) | 27.2 µM (inactive) | 19.5 µM (inactive) | 19.4 µM (inactive) | 21.2 µM (inactive) | 15.6 µM (inactive) | 20.2 µM (inactive) | 
9 | C/C(CC(=O)Nc1ccc(Cl)cc1)=N\NC(N)=S | > 100 µM (inactive) | 21.4 µM (inactive) | > 100 µM (inactive) | 45.5 µM (inactive) | 12.8 µM (inactive) | > 100 µM (inactive) | > 100 µM (inactive) |  | 26.5 µM (inactive) |  | 54 µM (inactive) |  | > 100 µM (inactive) | 1.81 µM (inactive) | 30.9 µM (inactive)
10 | C[C@]12Cc3conc3C(O)=C1CC[C@@H]1C2CC[C@@]2(C)C1CC[C@@H]2O (stereo partly drawn) | 0.634 µM (active) | 12 µM (inactive) | 25.8 µM (inactive) | 12.6 µM (inactive) | 2.55 µM (inactive) | 31.3 µM (inactive) | 9.77 µM (inactive) | 31.6 µM (inactive) | 17.9 µM (inactive) | 31.4 µM (inactive) | 14.6 µM (inactive) | 28.9 µM (inactive) | 19.7 µM (inactive) | 4.5 µM (inactive) | 
11 | CCCCCCCCCCCCCc1nnn[nH]1 | 18.2 µM (inactive) | 18.3 µM (inactive) | 29.9 µM (inactive) | 20.6 µM (inactive) | 18.1 µM (inactive) | 24.7 µM (inactive) | 18.3 µM (inactive) | 18.3 µM (inactive) | 20 µM (inactive) | 18.7 µM (inactive) | 19.6 µM (inactive) | 18.8 µM (inactive) | 18 µM (inactive) | 18.4 µM (inactive) | 18.6 µM (inactive)
12 | CC(=O)Oc1ccc2c(=O)c(C(C)=O)coc2c1 | > 100 µM (inactive) | > 100 µM (inactive) | > 100 µM (inactive) | > 100 µM (inactive) | > 100 µM (inactive) |  |  | > 100 µM (inactive) | > 100 µM (inactive) | > 100 µM (inactive) | > 100 µM (inactive) |  | > 100 µM (inactive) | 81.8 µM (inactive) | 
13 | CCC(O)C1Cc2c(C)cc3c(c2O1)C(=O)c1ccccc1C3=O (stereo not drawn) | 44.4 µM (inactive) | 25.8 µM (inactive) | 32.4 µM (inactive) | 27.3 µM (inactive) | 17.9 µM (inactive) | 22.6 µM (inactive) | 31.8 µM (inactive) | 33.3 µM (inactive) | 36 µM (inactive) | 36.3 µM (inactive) | 25.1 µM (inactive) | 35.3 µM (inactive) | 39.4 µM (inactive) | 27.7 µM (inactive) | 29.6 µM (inactive)
14 | NCCn1cnc2nc(NC(=O)c3ccccc3)[nH]c(=O)c21 | > 100 µM (inactive) | > 100 µM (inactive) | > 100 µM (inactive) | > 100 µM (inactive) | > 100 µM (inactive) |  | 45.7 µM (inactive) |  | > 100 µM (inactive) | > 100 µM (inactive) | > 100 µM (inactive) | > 100 µM (inactive) | > 100 µM (inactive) | > 100 µM (inactive) | > 100 µM (inactive)
15 | Cc1ccc(S(=O)(=O)c2ccc(N)cc2)cc1 | > 100 µM (inactive) | 47.6 µM (inactive) | > 100 µM (inactive) | > 100 µM (inactive) | > 100 µM (inactive) | > 100 µM (inactive) | > 100 µM (inactive) | > 100 µM (inactive) | > 100 µM (inactive) |  |  |  | > 100 µM (inactive) |  | > 100 µM (inactive)
16 | N/N=C(/Cc1nc2ccc(C(=O)c3ccccc3)cc2nc1O)C(=O)Nc1ccc([N+](=O)[O-])cc1[N+](=O)[O-] | > 10 µM (inactive) | > 100 µM (inactive) | 81.8 µM (inactive) | > 10 µM (inactive) | > 10 µM (inactive) | 55.7 µM (inactive) | > 10 µM (inactive) | 27.3 µM (inactive) | > 10 µM (inactive) | > 100 µM (inactive) | > 10 µM (inactive) | > 10 µM (inactive) | > 10 µM (inactive) | > 10 µM (inactive) | > 10 µM (inactive)
17 | O=c1[nH]n2c(=O)cc[nH]c2c1-c1nnns1 | > 100 µM (inactive) | > 100 µM (inactive) |  | > 100 µM (inactive) | > 100 µM (inactive) | > 100 µM (inactive) | > 100 µM (inactive) | > 100 µM (inactive) | > 100 µM (inactive) | > 100 µM (inactive) | > 100 µM (inactive) | > 100 µM (inactive) | > 100 µM (inactive) | > 100 µM (inactive) | > 100 µM (inactive)
18 | COC(=O)NC(=O)c1cn(C2CCCCC2)c(=O)[nH]c1=O | > 100 µM (inactive) | > 100 µM (inactive) | > 100 µM (inactive) | > 100 µM (inactive) | > 100 µM (inactive) | > 100 µM (inactive) | > 100 µM (inactive) | > 100 µM (inactive) | > 100 µM (inactive) | > 100 µM (inactive) | > 100 µM (inactive) | > 100 µM (inactive) | > 100 µM (inactive) | > 100 µM (inactive) | > 100 µM (inactive)
19 | CC(=O)O[C@]1(C)CCC2C(C)C(=O)OC2C2C(C)[C@@H](O)CC21 (stereo partly drawn) | 20.3 µM (inactive) | 49.8 µM (inactive) | 87.9 µM (inactive) | 66.5 µM (inactive) | 14.2 µM (inactive) | 49.9 µM (inactive) | 60.5 µM (inactive) | 26.2 µM (inactive) | 52.7 µM (inactive) | 28.3 µM (inactive) | 33.3 µM (inactive) | 35.6 µM (inactive) | 31.5 µM (inactive) | 17.9 µM (inactive) | 24.6 µM (inactive)
20 | Cc1nn(C)c(=S)n(C)c1=O | 0.733 µM (active) |  | 0.571 µM (active) | 0.394 µM (active) | 1.31 µM (inactive) | 14.7 µM (inactive) | 0.329 µM (active) | 5.83 µM (inactive) | 0.439 µM (active) | 0.802 µM (active) | 0.56 µM (active) | 0.927 µM (active) | 24.8 µM (inactive) | 1.79 µM (inactive) | 4.1 µM (inactive)
